Measured values taken from patent US4990500A, “Oxirane pseudooligosaccharides, a process for their preparation, their use and pharmaceutical preparations” (Hoechst Aktiengesellschaft, priority 1986, dated 1991).
Structures can show the parent of a compound that is named as a salt. Each block holds one compound with its values, some of them ahead of it.

Tests used:
[1] = target: T1, α-Amylase from the pig pancreas (Sus scrofa, UniProt P00690); test: Amylase test (inhibition of α-amylase, soluble starch according to Zulkowski, dinitrosalicylic acid); format: biochemical; settings: for specific activity, α-amylase inhibitor units (AIU) per mg: 1 AIU = amount inhibiting two amylase units to 50%, 37° C., pH 6.9
T1 construct: from tissue; host or cells: pig pancreas
T1 sequence (P00690 16-511): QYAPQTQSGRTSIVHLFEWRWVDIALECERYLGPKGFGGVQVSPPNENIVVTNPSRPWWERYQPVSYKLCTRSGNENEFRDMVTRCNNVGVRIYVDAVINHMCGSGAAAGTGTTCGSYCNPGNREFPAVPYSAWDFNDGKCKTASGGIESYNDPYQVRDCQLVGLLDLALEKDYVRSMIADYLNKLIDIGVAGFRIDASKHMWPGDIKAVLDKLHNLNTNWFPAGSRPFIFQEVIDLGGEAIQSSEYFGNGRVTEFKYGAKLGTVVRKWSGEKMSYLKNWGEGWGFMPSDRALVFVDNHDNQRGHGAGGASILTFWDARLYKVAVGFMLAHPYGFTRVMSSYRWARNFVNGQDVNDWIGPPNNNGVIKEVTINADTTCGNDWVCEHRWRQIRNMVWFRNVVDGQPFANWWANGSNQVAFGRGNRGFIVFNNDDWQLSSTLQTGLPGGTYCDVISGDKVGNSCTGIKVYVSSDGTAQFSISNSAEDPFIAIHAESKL
Procedure: (§1) The specific activities are 4×10^4 α-amylase inhibitor units (AIU) per mg and 1×10^4 saccharase inhibitor unit (SIU) per mg respectively for W-46 H, and 1×10^4 AIU per mg and 3×10^4 SIU per mg respectively for the inhibitor W-46 P. The activities were determined in the following tests:
An amylase inhibitor unit (AIU) is defined as the amount of inhibitor which is capable of inhibiting two amylase units (AU) to 50% under the test conditions. According to international agreement, one amylase unit is the amount enzyme which cleaves 1 μequivalent of glucoside bonds in the starch in one minute. The μgram-equivalents of cleaved glucoside bonds are determined photometrically using dinitrosalicylic acid as the μgram-equivalents of reducing sugars. The data are calculated as μmoles of maltose, determined with reference to a maltose calibration line.
The tests are carried out as follows:
α-Amylase from the pig pancreas and the solutions to be tested are preincubated together at 37° C. for 10-20 minutes in 1.0 ml of 20 mM phosphate buffer, pH 6.9+10 mM of NaCl. The enzymatic reaction is initiated according to Zulkowski by adding 1.0 ml of soluble starch (0.25% in the buffer specified). After exactly 10 minutes, the reaction is terminated using 2.0 ml of dinitrosalicylic acid coloring reagent (according to Boehringer Mannheim: BiochemicaInformation II) and the mixture is heated for 5 minutes in a boiling water bath to develop the color. After cooling, the extinction is measured at 546 nm against the blank reagent. 50% inhibition is determined graphically compared to the uninhibited enzyme reaction by means of the probability plot by using various amounts of inhibitor.

[2] = target: T2, saccharase (disaccharidases from the small intestine mucosa) (Homo sapiens, UniProt P14410); test: Saccharase test (inhibition of saccharase, hexokinase/glucose-6-phosphate dehydrogenase method); format: biochemical; settings: for specific activity, saccharase inhibitor units (SIU) per mg: 1 SIU = amount inhibiting two saccharase units to 50%
T2 construct: from tissue
T2 sequence (P14410 whole entry): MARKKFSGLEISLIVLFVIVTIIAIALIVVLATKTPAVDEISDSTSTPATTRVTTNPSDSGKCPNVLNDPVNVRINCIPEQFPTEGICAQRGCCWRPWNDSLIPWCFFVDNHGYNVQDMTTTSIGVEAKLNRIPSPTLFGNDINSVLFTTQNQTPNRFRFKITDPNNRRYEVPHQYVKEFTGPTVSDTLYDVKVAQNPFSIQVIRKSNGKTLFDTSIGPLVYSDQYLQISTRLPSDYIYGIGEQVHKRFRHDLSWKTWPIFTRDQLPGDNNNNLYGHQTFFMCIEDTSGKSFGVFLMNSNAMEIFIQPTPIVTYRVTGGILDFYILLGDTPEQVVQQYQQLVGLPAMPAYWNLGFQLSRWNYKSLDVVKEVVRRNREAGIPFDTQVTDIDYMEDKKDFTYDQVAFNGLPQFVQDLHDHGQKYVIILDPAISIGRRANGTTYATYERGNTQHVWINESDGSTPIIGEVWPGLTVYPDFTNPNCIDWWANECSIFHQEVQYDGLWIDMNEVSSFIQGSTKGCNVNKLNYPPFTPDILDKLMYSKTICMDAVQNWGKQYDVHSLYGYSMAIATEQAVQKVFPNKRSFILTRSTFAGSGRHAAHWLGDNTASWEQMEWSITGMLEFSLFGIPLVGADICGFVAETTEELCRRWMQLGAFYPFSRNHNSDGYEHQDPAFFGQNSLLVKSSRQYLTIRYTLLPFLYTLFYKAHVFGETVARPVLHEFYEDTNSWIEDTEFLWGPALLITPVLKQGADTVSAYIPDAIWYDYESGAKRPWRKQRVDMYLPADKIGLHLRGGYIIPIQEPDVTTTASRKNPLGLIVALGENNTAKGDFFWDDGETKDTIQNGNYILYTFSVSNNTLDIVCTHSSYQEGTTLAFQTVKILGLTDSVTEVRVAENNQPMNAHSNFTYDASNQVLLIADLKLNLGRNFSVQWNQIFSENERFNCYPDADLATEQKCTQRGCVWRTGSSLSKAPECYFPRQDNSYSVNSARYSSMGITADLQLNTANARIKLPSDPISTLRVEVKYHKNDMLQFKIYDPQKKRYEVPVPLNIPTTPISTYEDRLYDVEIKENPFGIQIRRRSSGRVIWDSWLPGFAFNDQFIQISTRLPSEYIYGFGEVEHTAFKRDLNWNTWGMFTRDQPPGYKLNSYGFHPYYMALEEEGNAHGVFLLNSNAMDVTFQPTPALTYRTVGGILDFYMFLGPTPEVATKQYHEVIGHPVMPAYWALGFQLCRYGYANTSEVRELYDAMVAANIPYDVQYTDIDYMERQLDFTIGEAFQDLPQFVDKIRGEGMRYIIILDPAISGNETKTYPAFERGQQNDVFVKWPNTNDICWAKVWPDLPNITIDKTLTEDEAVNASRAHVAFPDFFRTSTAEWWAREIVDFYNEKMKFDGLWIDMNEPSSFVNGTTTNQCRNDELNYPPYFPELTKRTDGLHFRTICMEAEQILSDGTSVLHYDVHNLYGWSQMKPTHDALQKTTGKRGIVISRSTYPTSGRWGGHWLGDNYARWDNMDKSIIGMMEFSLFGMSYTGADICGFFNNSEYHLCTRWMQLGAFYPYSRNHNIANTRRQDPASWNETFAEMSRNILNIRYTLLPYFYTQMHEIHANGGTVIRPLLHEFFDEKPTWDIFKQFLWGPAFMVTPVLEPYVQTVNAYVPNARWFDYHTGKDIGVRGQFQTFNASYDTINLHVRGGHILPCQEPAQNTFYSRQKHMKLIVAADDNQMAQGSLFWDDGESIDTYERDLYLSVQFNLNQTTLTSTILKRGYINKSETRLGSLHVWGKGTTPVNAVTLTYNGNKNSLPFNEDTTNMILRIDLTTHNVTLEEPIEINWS
Procedure: as §1
One saccharase inhibitor unit (SIU) is defined as the amount of inhibitor which is capable of inhibiting to 50% two saccharase units (SU) under the test conditions. According to international agreement, one SU is the amount of enzyme which cleaves 1 μequivalent of glycoside bonds in saccharose in one minute. The μgram-equivalents of cleaved glucoside bonds are determined photometrically using the hexokinase/glucose-6-phosphate dehydrogenase method as 2 μgram equivalents. The data are calculated as μmoles of hexoses, determined with reference to a glucose calibration curve.
The tests were carried out according to H. U. Bergmeyer, described in "Methods of Enzymatic Analysis", 3rd edition, Verlag Chemie, Weinheim, 1984, pages 96-103.

[3] = test system: experimental animals; test: Oral administration of high doses to experimental animals (symptoms); format: in vivo; settings: even high doses
[4] = test system: blood glucose concentration of sucrose-fed rats; test: Action on the blood glucose concentration of sucrose-fed rats; format: in vivo, male Wistar rats; settings: for Blood glucose: 2 g/kg sucrose, mean ± SEM, n = 7
Excerpt: (§2) In order to test the pharmacological action of the α-glucosidase inhibitors, unfed, male Wistar rats weighing between 200 and 250 g were given orally an inhibitor W-46 H or W-46 P according to the invention together with 2 g of starch or sucrose per kg of body weight as a suspension in ®Tylose (methylhydroxyethylcellulose).
(§3) In these investigations, the values collated in Tables 1 (action on the blood glucose concentration of starch-fed rats) and 2 (action on the blood glucose concentration of sucrose-fed rats) were determined for inhibitor W-46 H.
(§4) A limiting value of 0.27 mg/kg of rat is calculated from the values given in Table 1 and a limiting value of 1.29 mg/kg of rat from the values given in Table 2 (the limiting value of the active ingredient is taken to mean the amount per kg of experimental animal at whose administration a clear action can still be seen after one hour).

[5] = test system: blood glucose concentration of starch-fed rats; test: Action on the blood glucose concentration of starch-fed rats; format: in vivo, male Wistar rats; settings: for Blood glucose: 2 g/kg starch, mean ± SEM, n = 7
Excerpt: as §2, §3, §4

specific activity, α-amylase inhibitor units (AIU) per mg [1]: 3.9×10^4 AIU/mg | specific activity, saccharase inhibitor units (SIU) per mg [2]: 1×10^4 SIU/mg
Structure (SMILES): CC1OC(OC2C(CO)OC(O)C(O)C2O)C(O)C(O)C1NC1C(O)C(O)C(OC2OC(CO)C(OC3OC(C)C(NC4C(O)C(O)C(O)C5(CO)OC45)C(O)C3O)C(O)C2O)C2(CO)OC12 (centres unmarked) [W-46 H chloride]

inhibition of the α-amylase from the pancreas (in words) [1]: strongly inhibit | specific activity, α-amylase inhibitor units (AIU) per mg [1]: 1×10^4 AIU/mg | striking symptoms after oral administration [3]: not possible to detect striking symptoms | inhibition of the disaccharidases from the small intestine mucosa, in particular the saccharase (in words) [2]: strongly inhibit | specific activity, saccharase inhibitor units (SIU) per mg [2]: 3×10^4 SIU/mg
Structure (SMILES): CC1OC(O)C(O)C(O)C1NC1C(O)C(O)C(OC2OC(CO)C(OC3OC(C)C(NC4C(O)C(O)C(O)C5(CO)OC45)C(O)C3O)C(O)C2O)C2(CO)OC12 (centres unmarked) [W-46 P]

inhibition of the α-amylase from the pancreas (in words) [1]: strongly inhibit | specific activity, α-amylase inhibitor units (AIU) per mg [1]: 4×10^4 AIU/mg | specific activity, α-amylase inhibitor units (AIU) per mg ([1]; listed as W-46 H (free base)): 4×10^4 AIU/mg | striking symptoms after oral administration [3]: not possible to detect striking symptoms | inhibition of the disaccharidases from the small intestine mucosa, in particular the saccharase (in words) [2]: strongly inhibit | specific activity, saccharase inhibitor units (SIU) per mg [2]: 1×10^4 SIU/mg | specific activity, saccharase inhibitor units (SIU) per mg ([2]; listed as W-46 H (free base)): 1×10^4 SIU/mg
Structure (SMILES): CC1OC(OC2C(CO)OC(O)C(O)C2O)C(O)C(O)C1NC1C(O)C(O)C(OC2OC(CO)C(OC3OC(C)C(NC4C(O)C(O)C(O)C5(CO)OC45)C(O)C3O)C(O)C2O)C2(CO)OC12 (centres unmarked) [W-46 H]
minimal effective dose ([4]; Rattus norvegicus, po, 1 h, sucrose-fed rats, p.o., calculated from Table 2, read-out: limiting value (amount per kg at whose administration a clear action can still be seen after one hour)): 1.29 mg/kg | Blood glucose ([4]; p.o. dose 1 mg/kg, 0 minutes): 3.99 ± 0.10 mmol/1 | Blood glucose ([4]; p.o. dose 1 mg/kg, 15 minutes): 6.07 ± 0.28 mmol/1 | Blood glucose ([4]; p.o. dose 1 mg/kg, 30 minutes): 6.01 ± 0.22 mmol/1 | Blood glucose ([4]; p.o. dose 1 mg/kg, 60 minutes): 6.34 ± 0.14 mmol/1 | Blood glucose ([4]; p.o. dose 1 mg/kg, 120 minutes): 5.45 ± 0.13 mmol/1 | Blood glucose ([4]; p.o. dose 1 mg/kg, 240 minutes): 4.57 ± 0.07 mmol/1 | Blood glucose ([4]; p.o. dose 3 mg/kg, 0 minutes): 3.94 ± 0.14 mmol/1 | Blood glucose ([4]; p.o. dose 3 mg/kg, 15 minutes): 5.71 ± 0.23 mmol/1 | Blood glucose ([4]; p.o. dose 3 mg/kg, 30 minutes): 5.53 ± 0.19 mmol/1 | Blood glucose ([4]; p.o. dose 3 mg/kg, 60 minutes): 5.47 ± 0.15 mmol/1 | Blood glucose ([4]; p.o. dose 3 mg/kg, 120 minutes): 5.20 ± 0.16 mmol/1 | Blood glucose ([4]; p.o. dose 3 mg/kg, 240 minutes): 4.83 ± 0.15 mmol/1 | Blood glucose ([4]; p.o. dose 10 mg/kg, 0 minutes): 4.01 ± 0.15 mmol/1 | Blood glucose ([4]; p.o. dose 10 mg/kg, 15 minutes): 5.06 ± 0.20 mmol/1 | Blood glucose ([4]; p.o. dose 10 mg/kg, 30 minutes): 5.11 ± 0.10 mmol/1 | Blood glucose ([4]; p.o. dose 10 mg/kg, 60 minutes): 4.82 ± 0.09 mmol/1 | Blood glucose ([4]; p.o. dose 10 mg/kg, 120 minutes): 4.50 ± 0.11 mmol/1 | Blood glucose ([4]; p.o. dose 10 mg/kg, 240 minutes): 4.29 ± 0.22 mmol/1 | minimal effective dose ([5]; Rattus norvegicus, po, 1 h, starch-fed rats, p.o., calculated from Table 1, read-out: limiting value (amount per kg at whose administration a clear action can still be seen after one hour)): 0.27 mg/kg | Blood glucose ([5]; p.o. dose 0.3 mg/kg, 0 hours): 3.77 ± 0.09 mmol/L | Blood glucose ([5]; p.o. dose 0.3 mg/kg, 0.5 hours): 5.53 ± 0.17 mmol/L | Blood glucose ([5]; p.o. dose 0.3 mg/kg, 1 hour): 5.59 ± 0.06 mmol/L | Blood glucose ([5]; p.o. dose 0.3 mg/kg, 2 hours): 5.67 ± 0.13 mmol/L | Blood glucose ([5]; p.o. dose 0.3 mg/kg, 3 hours): 4.86 ± 0.18 mmol/L | Blood glucose ([5]; p.o. dose 0.3 mg/kg, 5 hours): 4.39 ± 0.13 mmol/L | Blood glucose ([5]; p.o. dose 1.0 mg/kg, 0 hours): 3.93 ± 0.10 mmol/L | Blood glucose ([5]; p.o. dose 1.0 mg/kg, 0.5 hours): 5.04 ± 0.08 mmol/L | Blood glucose ([5]; p.o. dose 1.0 mg/kg, 1 hour): 5.07 ± 0.09 mmol/L | Blood glucose ([5]; p.o. dose 1.0 mg/kg, 2 hours): 4.99 ± 0.14 mmol/L | Blood glucose ([5]; p.o. dose 1.0 mg/kg, 3 hours): 4.57 ± 0.10 mmol/L | Blood glucose ([5]; p.o. dose 1.0 mg/kg, 5 hours): 4.13 ± 0.08 mmol/L

specific activity (α-amylase inhibitor units) ([1]; sulfate, printed without per mg): 3.8×10^4 AIU | specific activity, saccharase inhibitor units (SIU) per mg [2]: 9.6×10^3 SIU/mg
Structure (SMILES): CC1OC(OC2C(CO)OC(O)C(O)C2O)C(O)C(O)C1NC1C(O)C(O)C(OC2OC(CO)C(OC3OC(C)C(NC4C(O)C(O)C(O)C5(CO)OC45)C(O)C3O)C(O)C2O)C2(CO)OC12 (centres unmarked) [W-46 H sulfate]

specific activity, α-amylase inhibitor units (AIU) per mg [1]: 3.6×10^4 AIU/mg | specific activity, saccharase inhibitor units (SIU) per mg [2]: 9×10^3 SIU/mg
Structure (SMILES): CC1OC(OC2C(CO)OC(O)C(O)C2O)C(O)C(O)C1NC1C(O)C(O)C(OC2OC(CO)C(OC3OC(C)C(NC4C(O)C(O)C(O)C5(CO)OC45)C(O)C3O)C(O)C2O)C2(CO)OC12 (centres unmarked) [W-46 H glucuronate]
